Where a name gives a salt, the structure may show the parent alone.

For data set [1], the system named is eyes of conscious Beagle dogs. To be noted: cited from earlier work; for conjunctival hyperemia or adverse ocular effects at baseline (time 0): 1% (w/v) topical, dog eyes; for effect of L-NAME on elicited ocular surface hyperemia: L-NAME 1% treated eyes, 0-6 h.
The subject of data set [2] is rabbit isolated jugular veins. As to the kind of experiment: Vasorelaxation in histamine-precontracted rabbit isolated jugular veins. The data set is classed as cell-based. An excerpt: FIG. 3. Concentration-response curves for (FIG. 3A) bimatoprost and (FIG. 3B) latanoprost free acid in histamine-precontracted endothelium-intact and endothelium-denuded rabbit isolated jugular veins. Results are expressed as mean±S.E.M. of 5-6 animals. FIG. 3A adapted from Chen J et al., Invest Ophthalmol Vis Sci 2004; 45:ARVO E-Abstract 2609; FIG. 3B extends results reported in Chen J et al., Invest Ophthalmol Vis Sci 2004; 45:ARVO E-Abstract 2609; and Pharmacology Review of New Drug Application 21-275. FDA/Center for Drug Evaluation and Research. 2001;Part 1 and Part 2:1-107. Available online at http://www.fda.gov/cder/foi/nda/2001/21275_Lumigan.htm.
FIG. 4. Concentration-response curves for (FIG. 4A) bimatoprost and (FIG. 4B) latanoprost free acid in the presence or absence of indomethacin in endothelium-intact rabbit isolated jugular veins. Results are expressed as mean±S.E.M. of 7 animals and extend previous results reported in Pharmacology Review of New Drug Application 21-275. FDA/Center for Drug Evaluation and Research. 2001;Part 1 and Part 2:1-107. Available online at http://www.fda.gov/cder/foi/nda/2001/21275_Lumigan.htm.
FIG. 5. Concentration-response curves for (FIG. 5A) bimatoprost and (FIG. 5B) latanoprost free acid in the presence of 100 μM L-NAME or 100 (μM D-NAME control in endothelium-intact rabbit isolated jugular veins. Results are expressed as mean±S.E.M. of 6 animals. *P≦0.05, compared to responses in D-NAME pretreated tissues at the same concentration, paired t-test.
The pharmacological mechanism of ocular surface hyperemia elicited by bimatoprost and latanoprost was investigated using the rabbit jugular vein preparation as a quantitative in vitro model (Chen J. et al., Br J Pharmacol 1995; 116:3035-3041). In these studies, tissues were suspended in jacketed organ baths containing Krebs buffer with 1 μM indomethacin (endothelium-intact and -denuded) or in its absence (endothelium-intact) and precontracted with 3 μM histamine. Vasorelaxant and contractile activity were determined as a percentage (%) of the control tone elicited by histamine. Statistical comparisons for the vasorelaxant activity consisted of testing for significance of difference at each of the concentrations tested using the Student'-s t-test for unpaired samples (indomethacin vs no indomethacin) and paired samples (L-NAME vs D-NAME). Differences were considered statistically significant for P-values ≦0.05.
Indomethacin is a cyclooxygenase inhibitor that is routinely used in prostanoid receptor assays (Chen J et al., Current protocols in pharmacology. New York: John Wiley & Sons, Inc., 2001; 4.18.1-4.18.41). Studies of intact and viable isolated tissues, such as the rabbit jejunum (Ferreira S H, Herman A G, Vane J R., Br J Pharmacol 1976; 56:469-477) and human bronchial muscle (Haye-Legrand I, Cerrina J, Raffestin B et al., J Pharmacol Exp Ther 1986; 239:536-541), found the basal output of prostaglandins to be 8-23 pg/mg of tissue at baseline or over 30 min collection periods. In the presence of 1.7 and 2.79 μM indomethacin, the amounts of prostaglandins generated in isolated tissues become negligible (Botting J H, Salzmann R., Br J Pharmacol 1974; 50:119-124; Haye-Legrand I, Cerrina J, Raffestin B et al., J Pharmacol Exp Ther 1986; 239:536-541). The 1 μM concentration of indomethacin in the tissue bath, in our experience, is sufficient to prevent biosynthesis of prostanoids within isolated vascular tissue preparations (Alster P, Wennmalm Å., Eur J Pharmacol 1983; 86:441-446; Chen J et al., Current protocols in pharmacology. New York: John Wiley & Sons, Inc., 2001; 4.18.1-4.18.41). At substantially higher concentrations, indomethacin has been reported to lose selectivity for prostanoid biosynthesis inhibition (Aboulafia J et al., Br J Pharmacol 1976; 58:223-228; Goodfriend T L, Simpson R U., Br J Pharmacol 1981; 72:247-255; Northover B J, Br J Pharmacol 1971; 41:540-551; Sawdy R et al., Br J Pharmacol 1998; 125:1212-1217). […]

For data set [3], the system named is rabbit isolated jugular veins. To be noted: rabbit jugular vein; cited from earlier work.
Data set [4] has as its system human cultured conjunctiva-derived epithelial cells. To be noted: cited from earlier work; for direct stimulation of inflammatory pathways involving adhesion molecules or class II antigens: in vitro; for toxicity observed: primarily related to the concentration of benzalkonium chloride.
A further data set deals with rabbit eye conjunctiva. The settings on record: topical dose of 10 μg (0.03%, 30 μl); cited from earlier work.
Data set [5] deals with patients with glaucoma or ocular hypertension. The settings on record: 1 year; bimatoprost 0.03% once or twice daily, timolol maleate 0.5% twice daily; subset of 310 patients; cited from earlier work.
[6] abbreviates: bimatoprost 0.1%, latanoprost 0.005%, PGE2 0.01%.

In the case of `COC(=O)[C@H](N)CCCN=C(N)N[N+](=O)[O-]` [D-NAME], the “conjunctival hyperemia or adverse ocular effects at baseline (time 0)” value in data set [1] is listed as “did not produce conjunctival hyperemia or any adverse ocular effects”.

In the case of `COC(=O)[C@@H](N)CCCNC(=N)N[N+](=O)[O-]` [L-NAME, L-N^G-nitroarginine methyl ester], the “conjunctival hyperemia or adverse ocular effects at baseline (time 0)” value in data set [1] is recorded as “did not produce conjunctival hyperemia or any adverse ocular effects”.

As for `O=C(O)CCC/C=C\C[C@@H]1[C@@H](CC[C@@H](O)CCc2ccccc2)[C@H](O)C[C@@H]1O` [Latanoprost free acid, latanoprost free acid], the “contraction of the endothelium-denuded preparation” value in data set [2] (concentration range of 10^−10 to 10^−6 M) is listed as “did not contract”. Moreover, the “response in endothelium-denuded veins” value in data set [2] (endothelium-denuded, 10^−5M, latanoprost free acid) is recorded as “only contractions”. For the same compound, the “vasorelaxant response in presence of 100 μM L-NAME compared to 100 μM D-NAME control” value in data set [2] (endothelium-intact histamine precontracted tissues, P≦0.05 paired t-test) is “significantly inhibited”. Moreover, in data set [2] (endothelium-intact preparation), the “concentration of maximal vasorelaxation” value is recorded as 10^−7 M; the “response at higher concentrations of 10^−6M and 10^−5M” value is given as “reversal of the relaxant effects”. For the same compound, in data set [2] (endothelium-intact tissues, each concentration tested), the “difference in effects with and without 1 μM indomethacin” value is “no statistically significant differences”.

For the compound `CCCCC[C@H](O)/C=C/[C@H]1[C@H](O)CC(=O)[C@@H]1C/C=C\CCCC(=O)O` [PGE2, prostaglandin E2], the “effect of L-NAME on elicited ocular surface hyperemia” value in data set [1] (setting [6]) is on record as “had no effect”. For the same compound, in data set [1] (PGE2 0.01%, both D-NAME- and L-NAME-treated eyes, scale 0=none to 3=severe), the “ocular surface hyperemia severity” value is reported as “mild to moderate”.

As to `CCCCC[C@H](O)/C=C/[C@@H]1[C@@H](C/C=C\CCCC(=O)O)[C@@H](O)C[C@H]1O` [PGF2a, prostaglandin F2a], the “inhibition of response by L-NAME at 100 μM, compared to bimatoprost and latanoprost free acid” value in data set [3] was “less effective”.

For the compound `O=C(O)CCC/C=C\C[C@@H]1[C@H](CNNC(=O)Nc2ccccc2)[C@H]2CC[C@@H]1O2` [SQ 29548], the “effect of TP antagonist on reversal of the vasorelaxant response to latanoprost free acid” value in data set [2] (latanoprost free acid up to 10^−6 M) is “did not block the reversal of the vasorelaxant response”.

In the case of `CC(C)OC(=O)CCC/C=C\C[C@@H]1[C@@H](CC[C@@H](O)CCc2ccccc2)[C@H](O)C[C@@H]1O` [latanoprost], in data set [4], the “direct stimulation of inflammatory pathways involving adhesion molecules or class II antigens” value is reported as “None of the drugs appeared to induce direct stimulation of inflammatory pathways” and the toxicity observed entry is “mild”. The “ocular surface hyperemic response (severity)” value in data set [1] (D-NAME treated control eyes, bimatoprost 0.1%, latanoprost 0.005%, scale 0=none, 0.5=trace, 1=mild, 2=moderate, 3=severe) was “trace to mild”. The “effect of L-NAME on elicited ocular surface hyperemia” value in data set [1] (setting [6]) is on record as “blocked”. In the data set on rabbit eye conjunctiva, the “acute effects on blood flow in the conjunctiva” value was “no significant acute effects”.

Consider `CC(C)(C)NC[C@H](O)COc1nsnc1N1CCOCC1` [timolol maleate, (−)-1-tert-butylamino-3-[(4-morpholino-1,2,5-thiodiazol-3yl)oxy]-2-propanol maleate], for which the “mean laser-flare photometry readings and mean changes from baseline” value in data set [5] is reported as “no significant differences among the treatment groups”.

Consider `CC(C)OC(=O)CCC/C=C\C[C@@H]1[C@@H](/C=C/[C@@H](O)COc2cccc(C(F)(F)F)c2)[C@H](O)C[C@@H]1O` [travoprost], for which, in data set [4], the “direct stimulation of inflammatory pathways involving adhesion molecules or class II antigens” value is given as “None of the drugs appeared to induce direct stimulation of inflammatory pathways” and the toxicity observed entry is listed as “mild”.

Values taken from patent US9579328B2, “Prostaglandin and vasoconstrictor pharmaceutical compositions and methods of use” (ALLERGAN, INC., priority 2012, dated 2017).
